Values joined by “and” are separate entries in the source; they are usually repeats but may differ in a detail not shown here. Identical values can stand only once. Like-named read-outs stand apart in the source and are kept apart here.
Columns and labels:
DSS-induced IBD = DSS-induced IBD mouse model: survival; type: in vivo, C57BL/6 female mice; parameters: key to 1 means death, 0 means survival: 1 means death; 0 means survival
Description: DSS (3% w/v) was administered in drinking water ad libitum for 7 d (from day 0 to day 7). DSS solution was replaced three times on day 2, day 4, and day 6. […] Three mice in each group were killed at random on day 7, and distal colon tissues were collected for analysis. The mice weight and survival rate were recorded daily.

TNFα-induced SIRS = TNFα-induced SIRS mouse model: survival; type: in vivo, C57BL/6 female mice
[1] = system: kinases that have an inhibitory rate larger than 50%; assay: IC50 against kinases with inhibitory rate larger than 50%; type: biochemical, human; settings: all except MLK3; read-out: IC50 against all other kinases followed up
Description: In vitro kinase activity assays were conducted through the Kinase Profiling Services provided by Eurofins (Eurofins, France). The protocol for the RIPK1 assay is briefly described as follows (Protocols for other kinases are very similar and can be found in http://www.eurofins.com/pharmadiscovery). RIPK1 kinase was incubated with the test compound in assay buffer containing 8 mM MOPS (pH 7.0), 0.2 mM EDTA, 250 μM […], 10 mM magnesium acetate, and 10 μM [γ-33P]-ATP for 15 min at room temperature. The reaction was initiated by the addition of the Mg/ATP mixture. After incubation for 40 min at room temperature, and the reaction was stopped by the addition of 3% phosphoric acid. A 10 μL portion of the reaction mixture was then spotted onto a P30 filter mat and washed four times for 4 min in 0.425% phosphoric acid and once in methanol prior to drying and scintillation counting.

[2] = biological target: panel of human kinases (kinase named in endpoint) (Homo sapiens, UniProt P08581); assay: Kinase inhibitory activity profiling of RI-962@10 µM (406 kinases, Eurofins); type: biochemical; settings: 10 µM; read-out: Activity (%), Met(h)
In short: (§1)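 Radiometric filter-binding kinase assays: enzyme preincubated 15 min with compound in 8 mM MOPS pH 7.0, 0.2 mM EDTA, 250 μM peptide substrate, 10 mM magnesium acetate, 10 μM [γ-33P]-ATP. Reaction started with Mg/ATP, run 40 min at room temperature, stopped with phosphoric acid; 33P incorporation read by scintillation counting. Other kinases by similar protocols.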

[3] = biological target: panel of human kinases (kinase named in endpoint) (Homo sapiens, UniProt P78368); assay: as above; type: biochemical; settings: 10 µM; read-out: Activity (%), CK1γ2(h)
In short: as §1

[4] = biological target: panel of human kinases (kinase named in endpoint) (Homo sapiens, UniProt Q96RG2); assay: as above; type: biochemical; settings: 10 µM; read-out: Activity (%), PASK(h)
panel of human kinases (kinase named in endpoint) (Homo sapiens, UniProt Q96RG2), sequence (Q96RG2 whole entry): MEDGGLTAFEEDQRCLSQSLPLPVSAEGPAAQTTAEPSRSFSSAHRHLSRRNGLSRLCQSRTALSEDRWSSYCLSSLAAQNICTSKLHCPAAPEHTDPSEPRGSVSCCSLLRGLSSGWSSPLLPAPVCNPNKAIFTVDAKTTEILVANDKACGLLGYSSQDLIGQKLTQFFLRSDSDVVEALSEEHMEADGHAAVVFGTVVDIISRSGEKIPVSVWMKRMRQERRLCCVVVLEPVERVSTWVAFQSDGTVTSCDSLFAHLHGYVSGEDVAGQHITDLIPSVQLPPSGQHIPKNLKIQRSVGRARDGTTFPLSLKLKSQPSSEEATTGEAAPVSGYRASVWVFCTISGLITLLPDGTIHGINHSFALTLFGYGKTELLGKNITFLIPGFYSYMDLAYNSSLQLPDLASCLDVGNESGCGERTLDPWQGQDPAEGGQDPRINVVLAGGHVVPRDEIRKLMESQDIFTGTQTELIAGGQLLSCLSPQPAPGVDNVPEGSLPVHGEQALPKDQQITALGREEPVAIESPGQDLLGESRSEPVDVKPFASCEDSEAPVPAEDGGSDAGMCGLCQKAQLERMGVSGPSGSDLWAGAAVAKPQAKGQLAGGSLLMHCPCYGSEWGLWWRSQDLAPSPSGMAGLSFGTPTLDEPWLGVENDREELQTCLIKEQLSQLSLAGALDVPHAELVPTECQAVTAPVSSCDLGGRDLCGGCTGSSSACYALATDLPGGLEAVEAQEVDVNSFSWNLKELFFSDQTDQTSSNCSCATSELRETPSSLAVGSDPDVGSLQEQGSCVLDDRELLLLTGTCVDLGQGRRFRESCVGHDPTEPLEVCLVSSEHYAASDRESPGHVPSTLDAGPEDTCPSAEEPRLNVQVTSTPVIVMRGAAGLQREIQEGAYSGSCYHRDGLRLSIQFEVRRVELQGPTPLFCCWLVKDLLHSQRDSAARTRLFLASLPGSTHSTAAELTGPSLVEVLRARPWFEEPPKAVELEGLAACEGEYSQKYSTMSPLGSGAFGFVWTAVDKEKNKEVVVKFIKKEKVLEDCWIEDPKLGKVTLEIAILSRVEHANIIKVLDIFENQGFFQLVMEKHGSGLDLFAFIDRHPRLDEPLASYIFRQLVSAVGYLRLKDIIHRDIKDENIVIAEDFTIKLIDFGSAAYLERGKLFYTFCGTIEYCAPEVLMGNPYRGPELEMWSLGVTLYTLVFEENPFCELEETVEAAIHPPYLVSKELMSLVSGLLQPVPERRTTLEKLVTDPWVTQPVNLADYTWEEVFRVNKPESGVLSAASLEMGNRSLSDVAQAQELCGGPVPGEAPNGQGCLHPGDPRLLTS
In short: as §1

[5] = biological target: panel of human kinases (kinase named in endpoint) (Homo sapiens, UniProt P36888); assay: as above; type: biochemical; settings: 10 µM; read-out: Activity (%), Flt3(h)
panel of human kinases (kinase named in endpoint) (Homo sapiens, UniProt P36888), sequence (P36888 27-993): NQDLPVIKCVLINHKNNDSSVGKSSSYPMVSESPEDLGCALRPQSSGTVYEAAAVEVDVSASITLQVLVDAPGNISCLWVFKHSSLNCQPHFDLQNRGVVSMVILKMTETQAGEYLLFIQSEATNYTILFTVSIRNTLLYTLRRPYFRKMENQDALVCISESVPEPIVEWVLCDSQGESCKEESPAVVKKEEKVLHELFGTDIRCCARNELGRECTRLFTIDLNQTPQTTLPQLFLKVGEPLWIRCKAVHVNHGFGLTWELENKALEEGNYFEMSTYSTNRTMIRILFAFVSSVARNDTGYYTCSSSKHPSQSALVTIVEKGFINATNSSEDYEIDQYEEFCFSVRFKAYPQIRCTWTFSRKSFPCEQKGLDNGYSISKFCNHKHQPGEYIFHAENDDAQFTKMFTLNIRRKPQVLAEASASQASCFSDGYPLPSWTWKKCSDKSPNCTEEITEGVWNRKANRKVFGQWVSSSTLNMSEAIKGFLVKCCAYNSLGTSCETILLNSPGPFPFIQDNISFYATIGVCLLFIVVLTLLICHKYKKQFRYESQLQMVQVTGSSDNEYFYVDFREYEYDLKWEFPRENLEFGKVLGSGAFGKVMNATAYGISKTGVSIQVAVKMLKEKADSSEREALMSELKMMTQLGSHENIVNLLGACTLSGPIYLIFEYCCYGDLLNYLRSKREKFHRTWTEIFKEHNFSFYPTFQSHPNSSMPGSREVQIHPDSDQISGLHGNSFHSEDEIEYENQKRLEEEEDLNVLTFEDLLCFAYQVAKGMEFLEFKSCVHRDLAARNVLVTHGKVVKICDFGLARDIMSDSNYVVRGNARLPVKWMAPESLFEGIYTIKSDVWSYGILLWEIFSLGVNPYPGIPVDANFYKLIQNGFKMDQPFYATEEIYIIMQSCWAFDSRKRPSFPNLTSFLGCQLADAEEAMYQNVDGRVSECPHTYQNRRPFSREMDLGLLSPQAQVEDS
In short: as §1

[6] = biological target: panel of human kinases (kinase named in endpoint) (Homo sapiens, UniProt P0C1S8); assay: as above; type: biochemical; settings: 10 µM; read-out: Activity (%), Wee1B(h)
In short: as §1

[7] = biological target: panel of human kinases (kinase named in endpoint) (Homo sapiens, UniProt Q9NYY3); assay: as above; type: biochemical; settings: 10 µM; read-out: Activity (%), Snk(h)
panel of human kinases (kinase named in endpoint) (Homo sapiens, UniProt Q9NYY3), sequence (Q9NYY3 whole entry): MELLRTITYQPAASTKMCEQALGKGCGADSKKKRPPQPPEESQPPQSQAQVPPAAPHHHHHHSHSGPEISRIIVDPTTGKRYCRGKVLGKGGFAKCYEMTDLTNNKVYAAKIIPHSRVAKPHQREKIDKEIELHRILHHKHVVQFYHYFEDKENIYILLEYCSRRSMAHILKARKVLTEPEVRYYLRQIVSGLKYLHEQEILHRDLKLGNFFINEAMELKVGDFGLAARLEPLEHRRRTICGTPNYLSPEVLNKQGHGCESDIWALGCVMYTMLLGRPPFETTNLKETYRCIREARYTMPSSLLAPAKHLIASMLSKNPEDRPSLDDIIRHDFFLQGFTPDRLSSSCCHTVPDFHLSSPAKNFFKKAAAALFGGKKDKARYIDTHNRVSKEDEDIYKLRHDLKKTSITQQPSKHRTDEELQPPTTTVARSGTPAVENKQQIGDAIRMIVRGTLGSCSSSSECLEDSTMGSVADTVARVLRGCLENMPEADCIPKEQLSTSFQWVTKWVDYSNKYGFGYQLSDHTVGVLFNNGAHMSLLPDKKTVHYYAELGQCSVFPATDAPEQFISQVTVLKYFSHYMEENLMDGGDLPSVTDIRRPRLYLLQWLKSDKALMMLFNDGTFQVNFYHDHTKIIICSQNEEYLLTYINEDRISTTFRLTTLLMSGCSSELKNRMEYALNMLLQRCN
In short: as §1

[8] = biological target: panel of human kinases (kinase named in endpoint) (Homo sapiens, UniProt P49759); assay: as above; type: biochemical; settings: 10 µM; read-out: Activity (%), CLK1(h)
In short: as §1

[9] = biological target: panel of human kinases (kinase named in endpoint) (Homo sapiens, UniProt Q9UIK4); assay: as above; type: biochemical; settings: 10 µM; read-out: Activity (%), DAPK2(h)
In short: as §1

[10] = biological target: panel of human kinases (kinase named in endpoint) (Homo sapiens, UniProt Q04759); assay: as above; type: biochemical; settings: 10 µM; read-out: Activity (%), PKCθ(h)
In short: as §1

[11] = biological target: panel of human kinases (kinase named in endpoint) (Homo sapiens, UniProt P19525); assay: as above; type: biochemical; settings: 10 µM; read-out: Activity (%), PKR(h)
In short: as §1

[12] = biological target: panel of human kinases (kinase named in endpoint) (Homo sapiens, UniProt Q9UL54); assay: as above; type: biochemical; settings: 10 µM; read-out: Activity (%), TAO2(h)
In short: as §1

[13] = biological target: panel of human kinases (kinase named in endpoint) (Homo sapiens, UniProt Q9HCP0); assay: as above; type: biochemical; settings: 10 µM; read-out: Activity (%), CK1γ1(h)
panel of human kinases (kinase named in endpoint) (Homo sapiens, UniProt Q9HCP0), sequence (Q9HCP0 whole entry): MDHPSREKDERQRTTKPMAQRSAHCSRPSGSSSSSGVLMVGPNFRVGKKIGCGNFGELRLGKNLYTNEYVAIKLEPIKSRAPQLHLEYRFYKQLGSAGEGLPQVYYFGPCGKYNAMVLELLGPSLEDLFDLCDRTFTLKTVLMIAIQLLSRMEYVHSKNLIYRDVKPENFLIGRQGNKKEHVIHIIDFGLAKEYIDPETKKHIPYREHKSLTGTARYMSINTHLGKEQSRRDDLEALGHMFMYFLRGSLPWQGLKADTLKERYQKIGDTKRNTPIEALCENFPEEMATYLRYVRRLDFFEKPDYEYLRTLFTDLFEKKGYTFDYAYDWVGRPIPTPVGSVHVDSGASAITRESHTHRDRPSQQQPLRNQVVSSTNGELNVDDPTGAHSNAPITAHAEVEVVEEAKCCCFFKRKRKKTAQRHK
In short: as §1

[14] = biological target: panel of human kinases (kinase named in endpoint) (Homo sapiens, UniProt Q9NRH2); assay: as above; type: biochemical; settings: 10 µM; read-out: Activity (%), SNRK(h)
panel of human kinases (kinase named in endpoint) (Homo sapiens, UniProt Q9NRH2), sequence (Q9NRH2 whole entry): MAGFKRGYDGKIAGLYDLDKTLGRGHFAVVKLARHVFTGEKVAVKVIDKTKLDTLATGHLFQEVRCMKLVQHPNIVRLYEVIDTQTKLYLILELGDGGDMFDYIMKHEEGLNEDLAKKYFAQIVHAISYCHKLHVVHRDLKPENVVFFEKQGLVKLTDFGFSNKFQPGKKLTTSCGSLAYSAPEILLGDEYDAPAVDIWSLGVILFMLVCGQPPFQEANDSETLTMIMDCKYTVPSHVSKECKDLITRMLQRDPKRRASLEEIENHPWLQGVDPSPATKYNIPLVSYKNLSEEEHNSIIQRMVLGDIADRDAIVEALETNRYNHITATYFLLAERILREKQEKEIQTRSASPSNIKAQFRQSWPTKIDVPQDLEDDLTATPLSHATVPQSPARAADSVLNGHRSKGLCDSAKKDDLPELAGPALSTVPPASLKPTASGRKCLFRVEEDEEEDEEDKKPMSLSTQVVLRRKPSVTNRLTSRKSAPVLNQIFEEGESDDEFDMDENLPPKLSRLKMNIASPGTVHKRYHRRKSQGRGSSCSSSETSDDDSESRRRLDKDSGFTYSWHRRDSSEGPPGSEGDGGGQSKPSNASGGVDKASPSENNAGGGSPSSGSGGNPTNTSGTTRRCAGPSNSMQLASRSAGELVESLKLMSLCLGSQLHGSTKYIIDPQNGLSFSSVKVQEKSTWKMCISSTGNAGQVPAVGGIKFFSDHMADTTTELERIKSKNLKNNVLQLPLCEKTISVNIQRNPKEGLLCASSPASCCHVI
In short: as §1

[15] = biological target: panel of human kinases (kinase named in endpoint) (Homo sapiens, UniProt Q6P2M8); assay: as above; type: biochemical; settings: 10 µM; read-out: Activity (%), CaMKIß(h)
panel of human kinases (kinase named in endpoint) (Homo sapiens, UniProt Q6P2M8), sequence (Q6P2M8 whole entry): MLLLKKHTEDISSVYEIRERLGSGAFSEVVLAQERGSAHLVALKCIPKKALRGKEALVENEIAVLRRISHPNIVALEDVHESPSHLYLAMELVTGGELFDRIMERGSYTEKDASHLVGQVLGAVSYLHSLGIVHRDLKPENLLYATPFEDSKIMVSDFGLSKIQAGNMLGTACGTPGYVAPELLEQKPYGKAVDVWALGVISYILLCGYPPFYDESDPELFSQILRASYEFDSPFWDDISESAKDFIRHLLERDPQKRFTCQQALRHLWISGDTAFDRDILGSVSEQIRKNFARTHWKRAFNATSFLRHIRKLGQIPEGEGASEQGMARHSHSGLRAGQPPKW
In short: as §1

[16] = biological target: panel of human kinases (kinase named in endpoint) (Homo sapiens, UniProt Q15119); assay: as above; type: biochemical; settings: 10 µM; read-out: Activity (%), PDHK2(h)
In short: as §1

[17] = biological target: panel of human kinases (kinase named in endpoint) (Homo sapiens, UniProt Q8TD19); assay: as above; type: biochemical; settings: 10 µM; read-out: Activity (%), NEK9(h)
In short: as §1

[18] = biological target: panel of human kinases (kinase named in endpoint) (Homo sapiens, UniProt Q9Y5S2); assay: as above; type: biochemical; settings: 10 µM; read-out: Activity (%), MRCKβ(h)
In short: as §1

[19] = biological target: panel of human kinases (kinase named in endpoint) (Homo sapiens, UniProt P21709); assay: as above; type: biochemical; settings: 10 µM; read-out: Activity (%), EphA1(h)
In short: as §1

[20] = biological target: panel of human kinases (kinase named in endpoint) (Homo sapiens, UniProt P07947); assay: as above; type: biochemical; settings: 10 µM; read-out: Activity (%), Yes(h)
In short: as §1

[21] = biological target: panel of human kinases (kinase named in endpoint) (Homo sapiens, UniProt P06239); assay: as above; type: biochemical; settings: 10 µM
panel of human kinases (kinase named in endpoint) (Homo sapiens, UniProt P06239), sequence (P06239 whole entry): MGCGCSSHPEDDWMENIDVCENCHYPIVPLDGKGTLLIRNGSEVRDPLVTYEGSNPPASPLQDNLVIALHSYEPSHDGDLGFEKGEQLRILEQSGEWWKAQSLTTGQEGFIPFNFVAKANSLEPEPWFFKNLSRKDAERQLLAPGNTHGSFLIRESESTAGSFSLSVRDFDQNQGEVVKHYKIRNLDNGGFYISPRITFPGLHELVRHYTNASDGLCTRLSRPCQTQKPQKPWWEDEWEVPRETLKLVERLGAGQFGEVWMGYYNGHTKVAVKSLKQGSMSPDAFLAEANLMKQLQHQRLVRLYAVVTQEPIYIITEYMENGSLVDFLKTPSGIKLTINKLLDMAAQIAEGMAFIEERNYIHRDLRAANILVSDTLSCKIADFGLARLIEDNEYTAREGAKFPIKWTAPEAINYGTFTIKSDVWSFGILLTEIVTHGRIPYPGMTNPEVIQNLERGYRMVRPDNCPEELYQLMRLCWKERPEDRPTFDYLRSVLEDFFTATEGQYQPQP
In short: as §1

[22] = biological target: panel of human kinases (kinase named in endpoint) (Homo sapiens, UniProt P37173); assay: as above; type: biochemical; settings: 10 µM; read-out: Activity (%), TGFBR2(h)
In short: as §1

CC(C)C(=O)Nc1nc2cc(-c3ccc4c(c3)c(C(=O)NC(C)c3ccccc3)cn4C)ccn2n1 (stereo not shown) [RI-962]
survival rate (DSS-induced IBD; 40 mg/kg i.p. once a day for 10 d, 3% DSS 7 d): 100%
1 means death, 0 means survival (DSS-induced IBD; Figure 9f, individual mice, time 14): 0
survival rate (TNFα-induced SIRS; 40 mg/kg i.p. 15 min before mTNFα 300 μg/kg i.v.): 90%
1 means death, 0 means survival (TNFα-induced SIRS; 40 mg/kg i.p., per animal): 1 and 0
Time after mTNFα (TNFα-induced SIRS; 40 mg/kg i.p., per animal, time of death or end of observation): 24 h and 72 h
IC50 [1]: > 10 µM
activity at 10 µM [2]: 102%
activity at 10 µM [3]: 88%
activity at 10 µM [4]: 71%
activity at 10 µM [5]: 87%
activity at 10 µM [6]: 95%
activity at 10 µM [7]: 79%
activity at 10 µM [8]: 109%
activity at 10 µM [9]: 104%
activity at 10 µM [10]: 131%
activity at 10 µM [11]: 97%
activity at 10 µM [12]: 92%
activity at 10 µM [13]: 94%
activity at 10 µM [14]: 121%
activity at 10 µM [15]: 100%
activity at 10 µM [16]: 96%
activity at 10 µM [17]: 85%
activity at 10 µM [18]: 79%
activity at 10 µM [19]: 97%
activity at 10 µM [20]: 97%
activity at 10 µM ([21]; read-out: Activity (%), Lck(h)): 137%
activity at 10 µM ([21]; read-out: Activity (%), Lck(h) activated): 81%
activity at 10 µM [22]: 94%

— paper PMC9653409, “Generative deep learning enables the discovery of a potent and selective RIPK1 inhibitor” (Nature Communications, 2022)
